From patent publication US8163731B2, “Method and dosage regimens for eliminating a chemical substance in blood” (Rhodes Technologies, priority 2008, dated 2012)

Columns and labels:
smoking cessation = settings: very large reduction steps; cited from earlier work
[1] = system: opiate blocker; withdrawal symptoms; assay: Naltrexone given after the end of buprenorphine treatment (precipitated withdrawal)
Method: Since naltrexone is administered following the cessation of narcotic, there can be no residual narcotic in a patient's system, otherwise the naltrexone will push the patient into withdrawal. Therefore, the patient must wait about a week before to start naltrexone, even with extremely low doses, doses that may be considered to be homeopathic but are high enough to cause withdrawal symptoms if the narcotic is not fully washed out.

[2] = system: physical dependence to opioids and related substances; assay: Multidose tapering of buprenorphine in opiate-dependent patients (cessation success, withdrawal symptoms); type: in vivo; settings: for Successful, percent of total patients: calculated blood level reduction no greater than 5% from previous period
From the text: After several years of clinical experience in the use of buprenorphine, it became clear that a single dose in mg of buprenorphine given over a short period of time would not lead to a drug-free status. […]. If the dose is reduced rapidly, the patient reacts with both physical and emotional symptoms of withdrawal. By reducing the dose slowly, the patients experience a period where there is little or no decline in biologically available narcotic and thus feel more secure as they are not experiencing even minor withdrawal symptoms.
Commercially available buprenorphine (Suboxone® & Subutex®) is available in strengths of 8.0 mg as well as 2.0 mg. However, that these medications would not suffice for a successful program, because the 2.0 mg dose was too large and too steep cut-off. […]. During inception of development of multidose treatment that led to the current invention, and using the then current state of art, buprenorphine troches for the treatment (not maintenance) of opiate dependence was used on a patient that was a person who was using I.V. 5-8 bags of heroin daily. They were started on 3 mg of buprenorphine and remained on this dose for three days. After a two day period without opiates, an attempt was made to administer the opiate blocker naltrexone which was intended to assure that a person is indeed drug free and remained so.
Many alterations in treatment protocols to prevent withdrawal were made. The alterations included a greater variety of doses ranging from 8.0 to 4.0 mg administered in a deceasing amount over time. At first the dose strengths varied from 8.0 mg administered once daily with a daily reduction of 2.0 mg until to 4.0 mg, and then to 2.0 mg.
A 6.0 mg dose was then added to the protocol. This lengthened the withdrawal period from three days to seven. This change was occasioned by the observation that the drop from 8.0 mg to 4.0 mg was all too frequently accompanied by a significant return of withdrawal symptoms and, at times, a return to use.
Despite these alterations in the treatment protocol the results were still not what were expected. The observation was made that a cut-off of 2.0 mg would cause a return of withdrawal symptoms within 24 hrs and thus the likelihood of a return to drug use before naltrexone could be started. […] As a result, a 1.0 mg lozenges were administered
A fractional buprenorphine dose was administered to reduce the severity of withdrawal symptoms. This strategy was in response to ongoing withdrawal symptoms following the “conclusion” of withdrawal or a “final” 3.0 mg dose of buprenorphine. To mitigate the withdrawal symptoms, a dose of 1.5 mg of buprenorphine was given to the patient. This particular treatment was unsuccessful as the ongoing withdrawal symptoms were too difficult for the patient who relapsed as a result.
Stepwise increments were amended to proceed in the sub 1.0 mg dose range. The taper at this time was 1.0 mg, 0.75 mg, 0.5 mg, to 0.25 mg then a four day period of blank troches followed by an upward taper of troches with naltrexone going from 0.5 mg of naltrexone to 10.0 mg of naltrexone. With serial doses of 0.25 mg of buprenorphine many patients continued to report perceptible and, in some cases, intolerable withdrawal symptoms.
As a result of the ongoing objective patient observations and patient's subjective complaints of withdrawal symptoms, a 0.1 mg dose was introduced. Additionally, a dose of 1.5 mg as well as a dose of 0.75 mg was added to the dose progression series. Although withdrawal complaints were limited, they were still present, and generally in the late phases of treatment. […] A strategy of 0.1 mg decreases in dose was implemented when the patients reached the 4.0 mg dose range (i.e., 2.0 mg twice a day) and 0.01 mg deceases in the below 1.0 mg range. The effect of this change also to extended the withdrawal period to about six to eight weeks from four weeks. […]

Q: With `CN1CCCC1c1cccnc1` (stereo not shown) [nicotine] as the molecule, how does the “clinical success rates over placebo” value (smoking cessation) read?
A: Its value is 6-12%.

Q: Which “withdrawal symptoms caused by naltrexone” value ([1]; 12.5 mg, up to five days after the end of buprenorphine treatment) does the source give for `O=C1CC[C@@]2(O)[C@H]3Cc4ccc(O)c5c4[C@@]2(CCN3CC2CC2)[C@H]1O5` [naltrexone] here?
A: The value was “causes a return of withdrawal symptoms”.

Q: And the “withdrawal symptoms caused by naltrexone” value ([1]; given after a two day period without opiates following 3 mg buprenorphine for three days)?
A: The value was “severe withdrawal symptoms”.

Q: Which “Successful, percent of total patients” value ([2]; 1-30 treatment days) does the source give for buprenorphine hydrochloride here?
A: The value was 50.7%.

Q: And the “Successful, number of patients” value ([2]; 1-30 treatment days, total 75)?
A: The value was 38.

Q: And the “Successful, percent of total patients” value ([2]; 31-60 treatment days)?
A: Its value is 75.0%.

Q: What about the “Successful, number of patients” value ([2]; 31-60 treatment days, total 52) of the same molecule?
A: Its value is 39.

Q: And the “Successful, percent of total patients” value ([2]; 61-90 treatment days)?
A: The value was 90.5%.

Q: What about the “Successful, number of patients” value ([2]; 61-90 treatment days, total 21) of the same molecule?
A: The value was 19.

Q: And the “success rates in achieving freedom from physical dependence to opioids and related substances” value ([2]; specific gradually decreasing but measured doses of replacement narcotic)?
A: The value was no less than 90%.
